In PubChem BioAssay (NCI):
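Interpolation was linear, between the two tested concentrations surrounding the appropriate level; five concentrations were tested over 48 hours in 96-well plates. At the GI50, growth is halved. TGI: concentration producing complete growth inhibition.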

Columns and labels:
Experiment in all cases: NCI anticancer screen, dose series, 48 h
HOP-62 NSCLC = system: HOP-62 NSCLC
SN12C renal = system: SN12C renal
UACC-257 melanoma = system: UACC-257 melanoma
RXF 393 renal = system: RXF 393 renal
UO-31 renal = system: UO-31 renal
MCF7 breast = system: MCF7 breast
HCC-2998 colon = system: HCC-2998 colon
OVCAR-8 ovarian = system: OVCAR-8 ovarian
EKVX NSCLC = system: EKVX NSCLC
SF-268 CNS = system: SF-268 CNS
LOX IMVI melanoma = system: LOX IMVI melanoma
IGROV1 ovarian = system: IGROV1 ovarian
ACHN renal = system: ACHN renal
HL-60(TB) leukemia = system: HL-60(TB) leukemia
NCI-H23 lung = system: NCI-H23 lung
NCI-H522 lung = system: NCI-H522 lung
SNB-19 CNS = system: SNB-19 CNS
HCT-15 colon = system: HCT-15 colon
MDA-MB-435 = system: MDA-MB-435
KM12 colon = system: KM12 colon
OVCAR-5 ovarian = system: OVCAR-5 ovarian
UACC-62 melanoma = system: UACC-62 melanoma
TK-10 renal = system: TK-10 renal
PC-3 prostate = system: PC-3 prostate
A549 NSCLC = system: A549 NSCLC
HOP-92 NSCLC = system: HOP-92 NSCLC
COLO 205 colon = system: COLO 205 colon
SF-295 CNS = system: SF-295 CNS
OVCAR-4 ovarian = system: OVCAR-4 ovarian
DU-145 prostate = system: DU-145 prostate
NCI/ADR-RES ovarian = system: NCI/ADR-RES ovarian
SK-OV-3 ovarian = system: SK-OV-3 ovarian
A498 renal = system: A498 renal
786-0 renal = system: 786-0 renal
SF-539 CNS = system: SF-539 CNS
SK-MEL-2 melanoma = system: SK-MEL-2 melanoma
BT-549 breast = system: BT-549 breast
MDA-MB-468 breast = system: MDA-MB-468 breast
CAKI-1 renal = system: CAKI-1 renal
SK-MEL-28 melanoma = system: SK-MEL-28 melanoma
OVCAR-3 ovarian = system: OVCAR-3 ovarian
SK-MEL-5 melanoma = system: SK-MEL-5 melanoma
MALME-3M melanoma = system: MALME-3M melanoma
MDA-MB-231 breast = system: MDA-MB-231 breast

Question: With Clc1ccc2c(N/N=C/c3c[nH]c4ccc(Br)cc34)ccnc2c1 as the compound, how does the GI50 (HOP-62 NSCLC) read?
Answer: 1.58 µM

Question: What about the TGI (HOP-62 NSCLC) of the same compound?
Answer: 3.1 µM

Question: And the GI50 (SN12C renal)?
Answer: 1.75 µM

Question: What about the TGI (SN12C renal) of the same compound?
Answer: 3.17 µM

Question: What about the GI50 (UACC-257 melanoma) of the same compound?
Answer: 1.58 µM

Question: And the TGI (UACC-257 melanoma)?
Answer: 2.97 µM

Question: And the GI50 (RXF 393 renal)?
Answer: 1.42 µM

Question: And the TGI (RXF 393 renal)?
Answer: 2.79 µM

Question: What about the GI50 (UO-31 renal) of the same compound?
Answer: 1.44 µM

Question: What about the TGI (UO-31 renal) of the same compound?
Answer: 2.77 µM

Question: And the GI50 (MCF7 breast)?
Answer: 0.952 µM

Question: What about the TGI (MCF7 breast) of the same compound?
Answer: 2.35 µM

Question: What about the GI50 (HCC-2998 colon) of the same compound?
Answer: 0.762 µM

Question: What about the TGI (HCC-2998 colon) of the same compound?
Answer: 2.06 µM

Question: And the GI50 (OVCAR-8 ovarian)?
Answer: 1.8 µM

Question: What about the TGI (OVCAR-8 ovarian) of the same compound?
Answer: 3.35 µM

Question: What about the GI50 (EKVX NSCLC) of the same compound?
Answer: 1.16 µM

Question: And the TGI (EKVX NSCLC)?
Answer: 2.4 µM

Question: And the GI50 (SF-268 CNS)?
Answer: 1.7 µM

Question: What about the TGI (SF-268 CNS) of the same compound?
Answer: 3.53 µM

Question: And the GI50 (LOX IMVI melanoma)?
Answer: 0.173 µM

Question: And the TGI (LOX IMVI melanoma)?
Answer: 0.33 µM

Question: What about the GI50 (IGROV1 ovarian) of the same compound?
Answer: 1.65 µM

Question: What about the TGI (IGROV1 ovarian) of the same compound?
Answer: 3.08 µM

Question: And the GI50 (ACHN renal)?
Answer: 1.66 µM

Question: What about the TGI (ACHN renal) of the same compound?
Answer: 3.04 µM

Question: What about the GI50 (HL-60(TB) leukemia) of the same compound?
Answer: 0.469 µM

Question: And the TGI (HL-60(TB) leukemia)?
Answer: 1.92 µM

Question: And the GI50 (NCI-H23 lung)?
Answer: 1.11 µM

Question: What about the TGI (NCI-H23 lung) of the same compound?
Answer: 2.37 µM

Question: And the GI50 (NCI-H522 lung)?
Answer: 1.79 µM

Question: What about the TGI (NCI-H522 lung) of the same compound?
Answer: 3.37 µM

Question: And the GI50 (SNB-19 CNS)?
Answer: 1.54 µM

Question: What about the TGI (SNB-19 CNS) of the same compound?
Answer: 2.89 µM

Question: What about the GI50 (HCT-15 colon) of the same compound?
Answer: 0.182 µM

Question: And the TGI (HCT-15 colon)?
Answer: 0.343 µM

Question: And the GI50 (MDA-MB-435)?
Answer: 1.69 µM

Question: What about the TGI (MDA-MB-435) of the same compound?
Answer: 3.1 µM

Question: And the GI50 (KM12 colon)?
Answer: 1.8 µM

Question: And the TGI (KM12 colon)?
Answer: 3.34 µM

Question: And the GI50 (OVCAR-5 ovarian)?
Answer: 1.53 µM

Question: What about the TGI (OVCAR-5 ovarian) of the same compound?
Answer: 2.88 µM

Question: And the GI50 (UACC-62 melanoma)?
Answer: 1.66 µM

Question: What about the TGI (UACC-62 melanoma) of the same compound?
Answer: 3.05 µM

Question: And the GI50 (TK-10 renal)?
Answer: 2.27 µM

Question: What about the TGI (TK-10 renal) of the same compound?
Answer: 3.78 µM

Question: And the GI50 (PC-3 prostate)?
Answer: 1.31 µM

Question: And the TGI (PC-3 prostate)?
Answer: 2.76 µM

Question: And the GI50 (A549 NSCLC)?
Answer: 1.58 µM

Question: And the TGI (A549 NSCLC)?
Answer: 3.06 µM

Question: And the GI50 (HOP-92 NSCLC)?
Answer: 1.33 µM

Question: And the TGI (HOP-92 NSCLC)?
Answer: 2.74 µM

Question: And the GI50 (COLO 205 colon)?
Answer: 0.358 µM

Question: What about the TGI (COLO 205 colon) of the same compound?
Answer: 1.29 µM

Question: And the GI50 (SF-295 CNS)?
Answer: 1.61 µM

Question: What about the TGI (SF-295 CNS) of the same compound?
Answer: 2.99 µM

Question: What about the GI50 (OVCAR-4 ovarian) of the same compound?
Answer: 1.77 µM

Question: What about the TGI (OVCAR-4 ovarian) of the same compound?
Answer: 3.38 µM

Question: What about the GI50 (DU-145 prostate) of the same compound?
Answer: 0.924 µM

Question: What about the TGI (DU-145 prostate) of the same compound?
Answer: 2.14 µM

Question: And the GI50 (NCI/ADR-RES ovarian)?
Answer: 1.41 µM

Question: And the TGI (NCI/ADR-RES ovarian)?
Answer: 2.84 µM

Question: What about the GI50 (SK-OV-3 ovarian) of the same compound?
Answer: 1.57 µM

Question: And the TGI (SK-OV-3 ovarian)?
Answer: 3.03 µM

Question: And the GI50 (A498 renal)?
Answer: 1.87 µM

Question: What about the TGI (A498 renal) of the same compound?
Answer: 3.38 µM

Question: What about the GI50 (786-0 renal) of the same compound?
Answer: 1.44 µM

Question: And the TGI (786-0 renal)?
Answer: 2.88 µM

Question: And the GI50 (SF-539 CNS)?
Answer: 1.66 µM

Question: What about the TGI (SF-539 CNS) of the same compound?
Answer: 3.05 µM

Question: And the GI50 (SK-MEL-2 melanoma)?
Answer: 1.79 µM

Question: And the TGI (SK-MEL-2 melanoma)?
Answer: 3.25 µM

Question: And the GI50 (BT-549 breast)?
Answer: 1.48 µM

Question: And the TGI (BT-549 breast)?
Answer: 2.84 µM

Question: What about the GI50 (MDA-MB-468 breast) of the same compound?
Answer: 1.24 µM

Question: And the TGI (MDA-MB-468 breast)?
Answer: 2.57 µM

Question: And the GI50 (CAKI-1 renal)?
Answer: 1.46 µM

Question: And the TGI (CAKI-1 renal)?
Answer: 2.8 µM

Question: What about the GI50 (SK-MEL-28 melanoma) of the same compound?
Answer: 1.59 µM

Question: And the TGI (SK-MEL-28 melanoma)?
Answer: 2.95 µM

Question: What about the GI50 (OVCAR-3 ovarian) of the same compound?
Answer: 1.66 µM

Question: And the TGI (OVCAR-3 ovarian)?
Answer: 3.06 µM

Question: What about the GI50 (SK-MEL-5 melanoma) of the same compound?
Answer: 1.5 µM

Question: And the TGI (SK-MEL-5 melanoma)?
Answer: 2.83 µM

Question: And the GI50 (MALME-3M melanoma)?
Answer: 1.6 µM

Question: And the TGI (MALME-3M melanoma)?
Answer: 3.01 µM

Question: What about the GI50 (MDA-MB-231 breast) of the same compound?
Answer: 1.24 µM

Question: And the TGI (MDA-MB-231 breast)?
Answer: 2.56 µM
